We go through 24 molecules from ChEMBL document CHEMBL4680264, “Progress toward a Glycoprotein VI Modulator for the Treatment of Thrombosis” (J Med Chem, 2020).

Assay [1] is described as follows: Inhibition of ADP-stimulated human platelet aggregation assessed as ADP light transmission at 50 uM preincubated for 5 min followed by ADP stimulation by light transmission aggregometry (reference value: 62 +/- 3%). The assay is classed as functional. Further details: scale not given: the % may be the effect or the level left.
Assay [2] addresses T1, Thromboxane A2 receptor (Homo sapiens) (UniProt P21731).
T1 sequence (whole entry): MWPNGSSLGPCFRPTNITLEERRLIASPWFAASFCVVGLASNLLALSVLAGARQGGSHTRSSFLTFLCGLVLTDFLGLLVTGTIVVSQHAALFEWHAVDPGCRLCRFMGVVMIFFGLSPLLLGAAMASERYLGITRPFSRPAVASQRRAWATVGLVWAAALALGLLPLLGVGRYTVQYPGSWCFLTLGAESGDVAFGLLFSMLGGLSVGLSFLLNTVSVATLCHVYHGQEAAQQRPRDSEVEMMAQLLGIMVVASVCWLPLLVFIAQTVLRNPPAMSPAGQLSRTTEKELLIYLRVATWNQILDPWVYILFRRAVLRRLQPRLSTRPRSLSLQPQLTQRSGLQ
Briefly: Modulation of TxA2 receptor in human platelet suspension assessed as lowest concentration that reduced U46619-induced platelet aggregation preincubated for 5 min followed by U46619 stimulation by light transmission aggregometry. Type of assay: tissue-based. To be noted: filed as modulator.

The target of assay [3] is T2, Platelet glycoprotein VI (Homo sapiens, UniProt Q9HCN6).
T2 sequence (Q9HCN6 whole entry): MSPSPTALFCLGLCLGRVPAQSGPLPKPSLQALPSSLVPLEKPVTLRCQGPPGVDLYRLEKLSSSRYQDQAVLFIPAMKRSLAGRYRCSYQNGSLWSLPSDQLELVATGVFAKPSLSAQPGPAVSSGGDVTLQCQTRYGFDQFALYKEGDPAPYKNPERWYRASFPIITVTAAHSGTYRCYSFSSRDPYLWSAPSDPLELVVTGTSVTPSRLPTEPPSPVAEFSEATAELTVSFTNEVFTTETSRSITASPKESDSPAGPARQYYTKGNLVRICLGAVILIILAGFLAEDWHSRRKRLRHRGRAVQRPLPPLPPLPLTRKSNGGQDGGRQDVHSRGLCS
Briefly: Binding affinity to recombinant GP6 (unknown origin) at protein to compound ratio of 1 : 1 to 1 : 10 by 2D 15N-1H TROSY-HSQC NMR spectroscopy.

Assay [4] is described as follows: Modulation of GP6/FcRgamma in human platelet-rich plasma assessed as reduction in convulxin-induced platelet aggregation.
Assay [5] deals with T2, Platelet glycoprotein VI. The assay can be described thus: Modulation of GP6 in human platelets assessed as reduction in convulxin-induced P-selectin expression preincubated for 20 mins followed by convulxin stimulation and measured after 1 min by Western blot analysis. Type of assay: tissue-based.
Assay [6] in a line: Modulation of GP6 in porcine platelet-rich plasma assessed as reduction in convulxin-induced platelet aggregation. To be noted: Sus scrofa. Type of assay: tissue-based.
A short description of assay [7]: Inhibition of collagen-induced human platelet aggregation preincubated for 20 mins followed by collagen stimulation and measured for 10 mins by aggregometry. Type of assay: functional, tissue-based.
Assay [8] in a line: Inhibition of collagen-induced platelet aggregation in human platelet suspension preincubated for 10 mins followed by collagen stimulation by light transmission-based assay. Type of assay: functional, tissue-based.
For assay [9], the target named is T3, Platelet glycoprotein VI (Homo sapiens) (UniProt Q9HCN6).
T3 sequence (whole entry): T2 sequence (Q9HCN6 whole entry)
The conditions noted are these: Plasma, filed as modulator, time 15.0 min.

A short description of assay [10]: Antagonist activity at GP6 in human platelet assessed as reduction in CRP-induced platelet-aggregation preincubated for 60 secs followed by […] by light transmission aggregometry.
Assay [11] addresses T2, Platelet glycoprotein VI. The assay can be described thus: Binding affinity to human platelet lysate GP6 at 0.1 uM by surface plasmon resonance analysis. The assay is classed as subcellular.
Assay [12] is described as follows: Inhibition of PAF-induced platelet aggregation in rabbit platelet suspension preincubated for 10 mins followed by PAF stimulation by turbidimetric method. The assay is classed as functional, tissue-based. To be noted: Oryctolagus cuniculus.
The nature of assay [13]: Inhibition of arachidonic acid-induced platelet aggregation in rabbit platelet suspension preincubated for 10 mins followed by AA stimulation by turbidimetric method. Type of assay: functional, tissue-based. To be noted: Oryctolagus cuniculus.
Assay [14] can be described thus: Inhibition of ADP-induced platelet aggregation in rabbit platelet suspension preincubated for 10 mins followed by ADP stimulation by turbidimetric method. The assay is classed as functional, tissue-based. The conditions noted are these: Oryctolagus cuniculus.
Assay [15] concerns the target T2, Platelet glycoprotein VI. The assay can be described thus: Binding affinity to human platelet lysate GP6 at 100 uM by surface plasmon resonance analysis. Type of assay: subcellular. A general note: Surface plasmon resonance follows binding to a sensor surface in real time, without labels.
Assay [16] in a line: Inhibition of collagen-induced platelet aggregation in human platelet suspension preincubated for 3 mins followed by collagen stimulation and measured after 6 mins by lumi-aggregometry. Type of assay: functional, tissue-based.
The nature of assay [17]: Inhibition of human platelet lamellipodia formation on CRP-XL 1 umol/L preincubated for 4 mins followed by CRP-XL addition and measured after 45 mins (reference value: 69%). The assay is classed as functional. The conditions noted are these: dose 1 µmol/L, time 49 min, at 1 µM.
Assay [18] is described as follows: Inhibition of human platelet adhesion to immobilised CRP-XL at 1 umol/L preincubated for 4 mins followed by CRP-XL addition and measured after 45 mins relative to control. Type of assay: functional. To be noted: 49 min, dose 1 µmol/L.
The target in assay [19] is T1, Thromboxane A2 receptor (Homo sapiens). Briefly: Inhibition of [3H]-U46619 binding to TxA2 receptor in human platelet suspension at 0.3 uM incubated for 30 mins by liquid scintillation counting method relative to control. The assay is classed as tissue-based.
Assay [20] shares this target. Briefly: Inhibition of [3H]-U46619 binding to TxA2 receptor in human platelet suspension at 0.7 uM incubated for 30 mins by liquid scintillation counting method relative to control. The assay is classed as tissue-based.
The nature of assay [21]: Inhibition of ADP-induced platelet aggregation in human platelet suspension preincubated for 3 mins followed by […] and measured after 6 mins by lumi-aggregometry. The assay is classed as functional, tissue-based.
Assay [22] can be described thus: Inhibition of arachidonic acid-induced platelet aggregation in human platelet suspension preincubated for 3 mins followed by […] and measured after 6 mins by lumi-aggregometry. Type of assay: functional, tissue-based.

As to `CCOc1nc2cccc(C(=O)O)c2n1Cc1ccc(-c2ccccc2-c2nnn[nH]2)cc1`, the Activity in [1] is on record as 60%.
As to `CCCc1nc2c(C)cc(-c3nc4ccccc4n3C)cc2n1Cc1ccc(-c2ccccc2C(=O)O)cc1`, the MEC in assay [2] came out at 5 µM. Further, the Activity in assay [1] is given as 48%.
On to `CCCCC(=O)N(Cc1ccc(-c2ccccc2-c2nnn[nH]2)cc1)[C@H](C(=O)O)C(C)C`, for which, in [2], the MEC was found to be 50 µM. Further, the Activity in assay [1] is 53%. Besides, on Platelet glycoprotein VI [3], the Kd was found to be 100 µM.
For the molecule `Cc1cccc(Nc2nc(N[C@@H]3CCCC[C@@H]3N)ncc2C(N)=O)c1`, the IC50 was found to be 2.5 µM in assay [4], 0.048 µM at Platelet glycoprotein VI [5] and 0.35 µM in [6].
For the molecule `Cc1ccccc1-c1nn[nH]n1`, on Platelet glycoprotein VI [3], the Kd came to 1100 µM.
Regarding `C/C(O)=C(\C#N)C(=O)Nc1cc(Br)ccc1Br`, 2.8 µM corresponded to half-maximal inhibition in assay [7] (IC50).
Consider `O=C(O)c1ccccc1-c1ccccc1`, for which the Kd on Platelet glycoprotein VI [3] was 1500 µM.
As to `c1ccc(-c2ccccc2-c2nn[nH]n2)cc1`, on Platelet glycoprotein VI [3], the Kd was determined as 360 µM.
Still for that read-out and setting: for `c1ccc(CCCCOc2ccc(-c3ccccc3-c3nn[nH]n3)cc2)cc1` the value was 850 µM; for `c1ccc(-c2cccc(-c3nn[nH]n3)c2)cc1`, 80 µM; for `c1ccc(CCOc2ccc(-c3ccccc3-c3nn[nH]n3)cc2)cc1`, 52 µM.
In the case of `O=C(O)Cc1cccc(OCCCN(Cc2cccc(C(F)(F)F)c2Cl)CC(c2ccccc2)c2ccccc2)c1`, inhibition in assay [8] was half-maximal at 0.03 µM (IC50).
For the molecule `CCCCc1nc(Cl)c(C=O)n1Cc1ccc(-c2ccccc2-c2nn[nH]n2)cc1`, the MEC in assay [9] amounted to 500 µM.
In the case of `CN(C)CCCSc1ccccc1NC(=O)/C=C/c1ccccc1` [CINANSERIN], the IC50 in assay [10] stood at 35 µM.
At Platelet glycoprotein VI [11], `NCCCC(=O)O` [GAMMA-AMINOBUTYRIC ACID] had a Kd of 0.0411 µM.
On to `C=C1C(=O)[C@@]23[C@H](O)C[C@@H]4C(C)(C)C(=O)CC[C@@]4(C)[C@@H]2CC[C@@H]1[C@H]3O` [GLAUCOCALYXIN A], for which the IC50 in assay [12] was found to be 13.7 µM; in assay [13], 14.1 µM; in [14] it was 4.4 µM.
Take `C=CCc1ccc(O)c(-c2ccc(O)c(CC=C)c2)c1` [HONOKIOL]: on Platelet glycoprotein VI [15], the Kd is 289 µM. This molecule showed an IC50 in [16] of 0.6 µM.
As for `C=CC(=O)N1CCC[C@@H](n2nc(-c3ccc(Oc4ccccc4)cc3)c3c(N)ncnc32)C1` [IBRUTINIB], in assay [17], the “inhibition (INH)” value came to 11%. In assay [18], this molecule gave an inhibition at 1 µM of 70%.
As to `CCCCC1=NC2(CCCC2)C(=O)N1Cc1ccc(-c2ccccc2-c2nnn[nH]2)cc1` [IRBESARTAN], the inhibition in [19] amounted to 50%. In assay [2], the MEC was 0.5 µM. Further, the Activity in [1] is 38%.
Consider `CCCCc1nc(Cl)c(CO)n1Cc1ccc(-c2ccccc2-c2nnn[nH]2)cc1` [LOSARTAN], for which the inhibition in [20] was 50%. The MEC turned out to be 500 µM in [9] and 0.5 µM in assay [2]. Further, the Activity in assay [1] was found to be 39%.
As for `CC(C)=CCC/C(C)=C/C=C/C(C)=C/C=C/C(C)=C/C=C/C=C(C)/C=C/C=C(C)/C=C/C=C(\C)CCC=C(C)C` [LYCOPENE], the figures for the half-inhibitory concentration (IC50) in [21], in assay [22] and in [16] were 6.2 µM, 6.8 µM and 5.8 µM, respectively.
Take `CCCc1nc(C(C)(C)O)c(C(=O)O)n1Cc1ccc(-c2ccccc2-c2nnn[nH]2)cc1` [OLMESARTAN]: at Platelet glycoprotein VI [3], the Kd amounted to 300 µM.
In turn, `O=S(=O)(c1ccccc1)N(CC(F)(F)F)c1ccc(C(O)(C(F)(F)F)C(F)(F)F)cc1` [T091317] returned an IC50 in assay [8] above 0.05 µM.
As for H-YSDTDWLYFSTS-OH, at Platelet glycoprotein VI [3], the Kd stood at 57 µM.

What is called Kd is the free concentration of one partner at which half of the binding sites on the other are occupied at equilibrium, for simple one-to-one binding. Broadly, the IC50 is the concentration needed to halve the response being measured. As a reminder, the inhibition is the relative decrease from the control value, in per cent.
